Test results: article PMC6881072, “The repositioning of epigenetic probes/inhibitors identifies new anti-schistosomal lead compounds and chemotherapeutic targets” (PLoS Neglected Tropical Diseases, 2019)
“Also recorded” adds a separate entry of the source. Where two headings read alike, the source gives them in different places.

Experiments:
[1] = tested on: miracidia; set-up: method as in Roquis et al., 2018; conditions: ref Roquis et al., 2018; cited from earlier work
[2] = HepG2 cell cytotoxicity, MTT assay; format: cell-based, Human; conditions: human, read-out: CC50 (HepG2) (95% Confidence Intervals)
Description: Human Hepatocyte Carcinoma (HepG2) cells (Sigma Aldrich, UK) were utilized to assess SGC epigenetic probe cell cytotoxicity in the application of the MTT (3-(4,5-dimethylthiazol-2-yl)-2,5-diphenyltetrazolium bromide) assay. Briefly, cells were passaged at 70–80% confluence and seeded (20,000 cells/ 50 μL per well) in a 96-well, black-sided, clear-bottomed falcon plate (Fisher Scientific, UK) with the final plate column (8 wells) being treated as a blank (media only). Following a 24 h incubation (5% CO2, 37°C, humidified), HepG2 cells were then treated with 50 μL of pre-warmed media (37°C) containing SGC EPs/EIs at 200 μM to 0.02 μM (final concentration 100 μM, 10 μM, 1 μM, 0.1 μM and 0.01 μM). Three positive (1% Triton X-100) and negative (1% DMSO) control wells per plate were additionally included.
After addition of compounds, each plate was then incubated for a further 20 h before application of MTT for assessment of overt compound cytotoxicity using the MTT assay. The MTT assay was read using the POLARstar Omega (BMG LabTech, UK) plate reader at an absorbance of 570 nm. CC50s were calculated in GraphPad Prism.

[3] = tested on: S. mansoni schistosomula; assay: In vitro schistosomula screening (Roboworm platform), phenotype and motility; format: cell-based, Schistosoma mansoni; conditions: for hit / activity against schistosomula, single-point screen / schistosomula phenotype by microscopic assessment: 10 μM; for hit / activity against schistosomula, single-point screen / EC50 / schistosomula phenotype by microscopic assessment: 72 h; for hit / activity against schistosomula, single-point screen: hit cut-offs phenotype -0.15, motility -0.35; for EC50: Schistosoma mansoni
Description: Briefly, 384-well tissue culture plates (Perkin Elmer, cat 6007460), containing 20 μl of Basch medium, were wet-stamped using a Biomek NX^P liquid handling platform (Beckman Coulter, UK) with negative (0.625% dimethyl sulfoxide, DMSO) and positive controls (AUR and PZQ at 10 μM final concentration in 0.625% DMSO) as well as 37 SGC compounds (at 10 μM final concentration in 0.625% DMSO). […] To each pre-loaded well (single concentration or titration screens), a total of 100–120 mechanically transformed schistosomula (in 60 μl) were deposited via a WellMate (Thermo Scientific, UK). Schistosomula/compound co-cultures (80 μl in total) were then incubated at 37°C for 72 h in a humidified atmosphere containing 5% CO2. At 72 h, tissue culture plates (containing schistosomula/compound co-cultures) were imaged under the same conditions (37°C in a humidified atmosphere containing 5% CO2) using an ImageXpressXL high content imager (Molecular Devices, UK) with subsequent images processed for phenotype and motility as previously reported and successfully implemented by us at Aberystwyth University. Single point schistosomula screens (10 μM) were repeated two or three times whereas dose response titrations were performed once. Zˊ values obtained from all schistosomula screens ranged from 0.27–0.48 (mean = 0.40) for phenotype and 0.41–0.56 (mean = 0.48) for motility.

[4] = tested on: H3K36me2; assay: H3K36me2 detection in adult worm histone extracts; format: cell-based, Schistosoma mansoni; conditions: adult schistosome pairs, 72 h, vs DMSO
Description: LLY-507 (6.25 μM), BAY-598 (25 μM) or siSmp_000700 treated male and female worms (alongside DMSO or siLuc controls; 21 individuals per condition) were homogenized with a TissueLyser (Qiagen) and total histones extracted using the EpiQuik^TM Total Histone Extraction Kit (Epigentek). Levels of H3K36me2 in adult histone extracts were measured using the EpiQuik^TM Global Di-Methyl Histone H3-K36 Quantification Kit (Fluorimetric, Epigentek). Technical duplicates of three biological replicates of each treatment were analysed according to the manufacturer’s instructions. Fluorescent readings (530EX/590EM nm) were obtained using a POLARstar Omega (BMG Labtech, UK) microtiter plate reader. Fluorescent values of the samples were corrected by subtracting the fluorescent readings of the blank (buffer only, provided in the kit). The mean of the adjusted control values (DMSO for LLY-507/BAY-598 treated worms and siLuc for siSmp_000700 treated worms) was set at 100% H3K36me2 and the standard deviation (SD) was calculated from the normalised values.

[5] = tested on: adult male and female schistosome pairs; assay: In vitro adult schistosome screening (WHO/TDR motility, egg counts); format: cell-based, Schistosoma mansoni; conditions: for EC50: Schistosoma mansoni
Description: In vitro screening was replicated three times on different dates to account for any biological variation. Briefly three adult worm pairs/well (48-well tissue culture plate format) were placed into DMEM (Gibco, Paisley, UK) supplemented with 10% (v/v) FCS (Gibco, Paisley, UK), 1% (v/v) L-glutamine (Gibco, Paisley, UK) and an antibiotic mixture (150 Units/ml penicillin and 150 μg/ml streptomycin; Gibco, UK). DMSO (0.5% negative control), AUR (10 μM concentration in 0.5% DMSO; positive control) and two-fold titrations of SGC compounds (50 μM– 6.25 μM or 50 μM– 0.05 μM; in 0.5% DMSO max) were added, and together, these adult worm/compound co-cultures were incubated at 37°C for 72 h in a humidified atmosphere containing 5% CO2. Following compound incubation, WHO/TDR readouts of adult worm motility, abundance of H3K36me2 (LLY-507 and BAY-598 treated worms only) in histone extracts and egg counts/well were recorded at 72 h.

[6] = tested on: in vitro laid eggs (IVLEs) of adult worm pairs; assay: Vitellocyte and egg volume quantification of in vitro laid eggs (LSCM); format: cell-based, Schistosoma mansoni; conditions: 6.25 μM, 72 h, n = 10 eggs
Description: Fluorescent microscopic images (10 eggs per treatment) were captured on a Leica TCS SP8 super resolution laser confocal microscope fitted with a 63 X (water immersion) objective using the Leica Application Suite X. Green (egg autofluorescence) fluorescence was visualised with an argon or diode-pumped, solid state (DPSS) laser at 488 nm. DAPI was visualised using a 405 nm blue diode laser. The number of vitellocytes (DAPI^+ cells) and overall volume (mapped by the green autofluorescence) for individual eggs were calculated using IMARIS 7.3 software (Bitplane).

[7] = not told; cited from earlier work
[8] = CC50 HepG2 / schistosomula phenotype EC50
[9] = two-fold titration 10 μM–0.625 μM, single replicate, approximate, read-out: SCHISTOSOMULA EC50 Phenotype
[10] = 72 h, motility, adult females, read-out: ADULT EC50 (95% Confidence Intervals) Females
[11] = 72 h, motility, adult males, read-out: ADULT EC50 (95% Confidence Intervals) Males
[12] = CC50 HepG2 / schistosomula motility EC50
[13] = two-fold titration 10 μM–0.625 μM, single replicate, approximate, read-out: SCHISTOSOMULA EC50 Motility

## COc1cc2c(cc1OCCCN1CCCC1)N=C(N)C21CCC1 [A-366, 5'-Methoxy-6'-[3-(1-pyrrolidinyl)propoxy]spiro[cyclobutane-1,3'-indol]-2'-amine]
[1]
  miracidia to sporocyst transformation: completely block

## CCN(C(=O)CO)[C@H]1CN(C(=NC#N)Nc2cccc(OC(F)F)c2)N=C1c1ccc(Cl)c(Cl)c1 [BAY-598, (S)-N-[1-{N′-Cyano-N-[3-(difluoromethoxy)phenyl]carbamimidoyl}-3-(3,4-dichlorophenyl)-4,5-dihydro-1H-pyrazol-4-yl]-N-ethyl-2-hydroxyacetamide]
[2]; HepG2 cells
  CC50 at 20 h: > 50 µM
[3]
  hit / activity against schistosomula, single-point screen: are hits against schistosomula; also recorded: both active against schistosomula
[3]; [8]
  SELECTIVITY INDEX Schistosomula Phenotype: 10.40
[3]; [9]
  EC50: 4.81 µM
[4]; 25 μM
  reduction in H3K36me2: 23%
[5]; CC50 HepG2 / adult female EC50
  SELECTIVITY INDEX Adult Females: 3.02
[5]; CC50 HepG2 / adult male EC50
  SELECTIVITY INDEX Adult Males: 2.24
[5]; [10]
  EC50: 16.5 µM
[5]; [11]
  EC50: 22.4 µM

## CCCc1cc(C)[nH]c(=O)c1CNC(=O)c1cc(-c2ccnc(N3CCN(C)CC3)c2)cc2c1cnn2C(C)C [GSK343, N-[(1,2-Dihydro-6-methyl-2-oxo-4-propyl-3-pyridinyl)methyl]-1-(1-methylethyl)-6-[2-(4-methyl-1-piperazinyl)-4-pyridinyl]-1H-indazole-4-carboxamide, N-[(6-Methyl-2-oxo-4-propyl-1,2-dihydropyridin-3-yl)methyl]-6-[2-(4-methylpiperazin-1-yl)pyridin-4-yl]-1-(propan-2-yl)-1H-indazole-4-carboxamide]
[2]; HepG2 cells
  CC50 at 20 h: 29.2 µM
[3]
  hit / activity against schistosomula, single-point screen: identified as a hit
[3]; [8]
  SELECTIVITY INDEX Schistosomula Phenotype: 9.24
[3]; [9]
  EC50: 3.17 µM
[1]
  miracidia to sporocyst transformation: completely block
[5]; CC50 HepG2 / adult female EC50
  SELECTIVITY INDEX Adult Females: 1.16
[5]; CC50 HepG2 / adult male EC50
  SELECTIVITY INDEX Adult Males: 1.17
[5]; [10]
  EC50: 25.3 µM
[5]; [11]
  EC50: 25 µM

## O=C(O)CCNc1cc(N2CCc3ccccc3CC2)nc(-c2ccccn2)n1 [GSK-J1]
[6]
  number of vitellocytes per egg (packaging into IVLEs): did not
  overall egg volume: no difference
[3]
  hit / activity against schistosomula, single-point screen: None of these chemotype controls demonstrated anti-schistosomula activity
[5]; 3.13 μM and 6.25 μM, 72 h, vs DMSO
  adult worm motility and IVLE production: did not substantially alter these phenotypes
[7]
  cell permeability: cell impermeable

## Cc1cn(CCN2CCN(c3ccccc3-c3cc(C#N)cc(C(=O)NCCCN4CCCC4)c3)CC2)c2ccccc12 [LLY-507, 5-(2-(4-(2-(9-methyl-7-aza-bicyclo[4.3.0]nona-1(6),2,4,8-tetraen-7-yl)-ethyl)-piperazin-1-yl)-phenyl)-3-((3-(pyrrolidin-1-yl)-propylamino)-formyl)-benzonitrile]
[2]; HepG2 cells
  CC50 at 20 h: 23.8 µM
[3]
  schistosomula phenotype by microscopic assessment: phenotypes comparable to auranofin
  hit / activity against schistosomula, single-point screen: are hits against schistosomula; also recorded: both active against schistosomula
[3]; [12]
  SELECTIVITY INDEX Schistosomula Motility: 8.47
[3]; [8]
  SELECTIVITY INDEX Schistosomula Phenotype: 8.24
[3]; [13]
  EC50: 2.81 µM
[3]; [9]
  EC50: 2.88 µM
[4]; 6.25 μM
  reduction in H3K36me2: 25%
[5]; CC50 HepG2 / adult female EC50
  SELECTIVITY INDEX Adult Females: 3.13
[5]; CC50 HepG2 / adult male EC50
  SELECTIVITY INDEX Adult Males: 2.55
[5]; [10]
  EC50: 7.59 µM
[5]; [11]
  EC50: 9.32 µM

## CCCS(=O)(=O)c1nc(NC2CC2)cc(-c2ccc3c(ccn3C3CC(C)(C)NC(C)(C)C3)c2)n1 [NVS-CECR2-1, N-cyclopropyl-2-propylsulfonyl-6-[1-(2,2,6,6-tetramethylpiperidin-4-yl)indol-5-yl]pyrimidin-4-amine]
[2]
  CC50 at 20 h: 9.03 µM
[3]
  schistosomula phenotype by microscopic assessment: phenotypes comparable to auranofin
[3]; [12]
  SELECTIVITY INDEX Schistosomula Motility: 3.60
[3]; [8]
  SELECTIVITY INDEX Schistosomula Phenotype: 4.98
[3]; read-out: SCHISTOSOMULA EC50 Motility
  EC50: 2.5 µM
[3]; read-out: SCHISTOSOMULA EC50 Phenotype
  EC50: 1.81 µM
[5]; CC50 HepG2 / adult female EC50
  SELECTIVITY INDEX Adult Females: 1.73
[5]; CC50 HepG2 / adult male EC50
  SELECTIVITY INDEX Adult Males: 3.11
[5]; 72 h, read-out: ADULT EC50 (95% Confidence Intervals) Females
  EC50: 5.21 µM
[5]; 72 h, read-out: ADULT EC50 (95% Confidence Intervals) Males
  EC50: 2.9 µM

## COc1ccc(CCc2nc3cc(-c4c(C)noc4C)ccc3n2CC(C)N2CCOCC2)cc1Cl (stereo not drawn) [SGC-CBP30, 8-(3-chloro-4-methoxy-phenethyl)-4-(3,5-dimethyl-isoxazol-4-yl)-9-(2-(morpholin-4-yl)-propyl)-7,9-diaza-bicyclo[4.3.0]nona-1(6),2,4,7-tetraene]
[2]; HepG2 cells
  CC50 at 20 h: > 50 µM
[3]
  hit / activity against schistosomula, single-point screen: demonstrated activity against schistosomula
[3]; [12]
  S[…] Schistosomula Motility: 10.03
[3]; [8]
  S[…] Schistosomula Phenotype: 15.69
[3]; [13]
  EC50: 4.99 µM
[3]; [9]
  EC50: 3.19 µM
[5]; CC50 HepG2 / adult female EC50
  S[…] Adult Females: 1.6
[5]; CC50 HepG2 / adult male EC50
  S[…] Adult Males: 1.49
[5]; [10]
  EC50: 31.2 µM
[5]; [11]
  EC50: 33.5 µM

## CCCc1cc(C)[nH]c(=O)c1CNC(=O)c1cc(-c2ccc(N3CCN(C(C)C)CC3)nc2)cc2c1cnn2C(C)C [UNC1999, N-[(6-methyl-2-oxo-4-propyl-1,2-dihydropyridin-3-yl)methyl]-1-(propan-2-yl)-6-{6-[4-(propan-2-yl)piperazin-1-yl]pyridin-3-yl}-1H-indazole-4-carboxamide]
[2]; HepG2 cells
  CC50 at 20 h: 31.4 µM
[3]
  hit / activity against schistosomula, single-point screen: are hits against schistosomula
[3]; [12]
  SELECTIVITY INDEX Schistosomula Motility: 11.16
[3]; [8]
  SELECTIVITY INDEX Schistosomula Phenotype: 7.48
[3]; [13]
  EC50: 2.82 µM
[3]; [9]
  EC50: 4.2 µM
[5]; CC50 HepG2 / adult female EC50
  SELECTIVITY INDEX Adult Females: 1.95
[5]; CC50 HepG2 / adult male EC50
  SELECTIVITY INDEX Adult Males: 2.32
[5]; [10]
  EC50: 16.1 µM
[5]; [11]
  EC50: 13.5 µM
